Data set [1] can be described thus: Pharmacokinetics study in mice: erlotinib pretreatment, carbazeran and 4-oxo-carbazeran. It is filed as in vivo, BALB/c mice. Particulars: for AUC0-∞ / Cmax / Tmax / AUC(0-inf): blood; for AUC0-∞ / Cmax / Tmax / MRT0-∞ / AUC(0-inf) / CL/F / MRT inf: carbazeran 10 mg/kg p.o.; for CL/F: read-out: Apparent oral clearance (CL/F) (converted); for MRT inf: read-out: MRT0-∞. The method, then:
BALB/c mice (male, ∼8 weeks old) were purchased and housed at the Biological Resource Centre, Agency for Science, Technology and Research (A∗STAR). The experimental protocol was approved by the A∗STAR Institutional Review Board. […] Blood (12.5 μL) was drawn from the tail vein (with a needle prick) at various times (0.25, 0.5, 0.75, 1, 2, 3, 4, 6, and 8 hours) after carbazeran dosing. The blood samples were diluted 2 times with 12.5 μL of water. Acetonitrile containing the internal standard (carbazeran-d4, 4 nM in 75 μL acetonitrile and 3 nM in final sample volume of 100 μL) was added to the blood samples to precipitate proteins. […] Blank and standard calibration samples were prepared from control mice that were not treated with any chemicals. Pharmacokinetic data were analyzed by noncompartmental analysis using Phoenix WinNonlin 6.3 (Certara).
At the end of the last blood collection (8 hour post-carbazeran dosing), the mice were sacrificed. […] The tissue samples were homogenized, and a 12.5 μL aliquot of the homogenate was diluted with an equal volume of water. Acetonitrile containing the internal standard (carbazeran-d4, 4 nM in 75 μL acetonitrile and 3 nM in final sample volume of 100 μL) was added to the diluted tissue samples (25 μL) to precipitate the proteins.

Data set [2] has as its target T1, human liver cytosolic AOX1 (Homo sapiens, UniProt Q06278).
T1 sequence (Q06278 1-1338): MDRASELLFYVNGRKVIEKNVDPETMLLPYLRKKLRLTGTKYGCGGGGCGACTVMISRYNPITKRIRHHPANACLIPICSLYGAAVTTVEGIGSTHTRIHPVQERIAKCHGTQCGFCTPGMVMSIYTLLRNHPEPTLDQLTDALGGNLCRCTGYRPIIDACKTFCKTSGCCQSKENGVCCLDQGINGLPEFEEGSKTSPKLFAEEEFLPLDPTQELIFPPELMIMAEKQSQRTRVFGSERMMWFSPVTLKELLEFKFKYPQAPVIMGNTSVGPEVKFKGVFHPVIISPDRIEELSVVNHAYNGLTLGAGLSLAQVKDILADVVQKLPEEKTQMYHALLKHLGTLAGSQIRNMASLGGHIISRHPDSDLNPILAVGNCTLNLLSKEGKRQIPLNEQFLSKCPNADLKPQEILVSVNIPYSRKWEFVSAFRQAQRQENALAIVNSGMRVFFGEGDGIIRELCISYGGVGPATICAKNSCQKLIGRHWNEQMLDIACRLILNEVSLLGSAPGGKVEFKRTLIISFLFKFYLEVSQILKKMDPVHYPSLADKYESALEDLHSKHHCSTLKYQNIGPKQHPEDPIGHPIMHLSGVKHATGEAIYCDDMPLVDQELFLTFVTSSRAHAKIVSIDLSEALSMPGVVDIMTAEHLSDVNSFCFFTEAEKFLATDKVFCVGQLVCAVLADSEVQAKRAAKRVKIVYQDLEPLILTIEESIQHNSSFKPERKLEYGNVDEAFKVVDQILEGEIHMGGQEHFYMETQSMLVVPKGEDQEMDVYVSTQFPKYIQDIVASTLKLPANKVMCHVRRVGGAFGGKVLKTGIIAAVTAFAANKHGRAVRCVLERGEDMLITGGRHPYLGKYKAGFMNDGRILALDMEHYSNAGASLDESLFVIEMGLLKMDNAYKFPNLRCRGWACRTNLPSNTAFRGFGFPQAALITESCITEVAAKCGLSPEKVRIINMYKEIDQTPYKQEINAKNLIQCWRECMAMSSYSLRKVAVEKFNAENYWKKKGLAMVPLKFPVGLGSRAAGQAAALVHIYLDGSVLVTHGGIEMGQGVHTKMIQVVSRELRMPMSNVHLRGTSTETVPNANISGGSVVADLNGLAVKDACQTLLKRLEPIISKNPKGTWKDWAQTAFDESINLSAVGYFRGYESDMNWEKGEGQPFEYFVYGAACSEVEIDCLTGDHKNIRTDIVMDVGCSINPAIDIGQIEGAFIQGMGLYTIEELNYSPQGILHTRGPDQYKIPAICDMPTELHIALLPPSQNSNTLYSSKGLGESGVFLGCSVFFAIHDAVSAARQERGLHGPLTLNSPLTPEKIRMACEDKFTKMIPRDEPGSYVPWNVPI
Description: Enzyme inactivation of human liver cytosolic AOX1-mediated carbazeran 4-oxidation. The method, then: Carbazeran 4-oxidation and O^6-benzylguanine 8-oxidation were deployed as AOX1-selective catalytic markers.[27] The assay conditions (amount of cytosolic protein, incubation time, and substrate concentration) for carbazeran 4-oxidation catalyzed by human recombinant AOX1 and human/rat/mouse liver cytosols were optimized previously.[7]^,[25]
Enzymatic reaction was initiated by adding human liver cytosol (100 μg). After the specified preincubation duration, an aliquot (10 μL) of the preincubation mixture was transferred to 190 μL of a prewarmed (for 3 minutes at 37 °C) secondary incubation mixture (total volume of 200 μL) containing potassium phosphate buffer and carbazeran (15 μM) or O^6-benzylguanine (150 μM), which yielded a 20-fold dilution of the primary incubation mixture. The secondary incubation mixture was incubated for 5 minutes at 37 °C before the enzymatic reaction was terminated with 200 μL of ice-cold acetonitrile containing carbazeran-d4 (2.5 nM final concentration; internal standard for 4-oxo-carbazeran) or tolbutamide (25 nM final concentration; internal standard for 8-oxo-O^6-benzylguanine). Each sample was immediately mixed by vortex, placed on ice, centrifuged at 16,000g for 15 minutes at 4 °C and stored at –30 °C until ultra-high performance liquid chromatography–tandem mass spectrometry (UPLC-MS/MS) analysis. For enzyme inactivation assays involving rat and mouse liver cytosol and recombinant AOX1 assays, the experimental conditions were similar to those of human liver cytosol, except that the amount of cytosolic protein was 200 μg (rat) and 150 μg (mouse), respectively, and the incubation time of the secondary incubation mixture was 60 minutes. For the recombinant AOX1 enzyme assay, the amount of enzyme was 100 μg, the incubation time of the secondary incubation mixture was 15 minutes, and the total volume of the primary and secondary incubation mixtures was reduced to 100 μL.
Preliminary experiments were performed to optimize the incubation time and concentration of an inactivator to ensure a log-linear decrease in enzyme activity over time and that the kobs versus inactivator concentration plot reaches a plateau for the determination of the kinact value. The observed first-order rate constant for inactivation (kobs), maximal inactivation rate constant (kinact), half-maximal inactivation concentration (KI), and the time required for half of the enzyme molecules to be inactivated (t1/2) were calculated as described in our previous publication.[28]

The target in data set [3] is T1, human liver cytosolic AOX1. Description: Partition ratio determination (titration, human liver cytosol). The format is biochemical. More on the design: Enzymatic reaction was initiated by adding human liver cytosol (100 μg); tissue Corning, Inc. (Gentest brand) 452115; host or cells: human liver cytosol, pool of 150 donors. On the procedure:
The enzyme kinetic experiments were conducted as described above. The incubation was allowed to proceed until saturation of enzyme has been reached (6 or 18 minutes, as specified in each figure legend). Carbazeran 4-oxidation was plotted against the ratio of inactivator concentration to AOX1 protein concentration in the incubation mixture of 200 μL. The specific lot of human liver cytosol (#38292) used in this study contained 1.05 ± 0.01 pmol/μL (mean ± SD) of AOX1 protein, as assessed by capillary nanoproteomic immunoassay.[27] The turnover number was the extrapolation of the intercept of the 2 linear regression lines to the x-axis, which was determined by solving the 2 linear regression equations. The partition ratio was calculated by subtracting the turnover number by 1, assuming 1:1 stoichiometry between the inactivator and the enzyme.[29]

Data set [4] deals with T1, human liver cytosolic AOX1. It is filed as biochemical. More on the design: Enzymatic reaction was initiated by adding human liver cytosol (100 μg); tissue Corning, Inc. (Gentest brand) 452115; host or cells: human liver cytosol, pool of 150 donors. Particulars: potassium ferricyanide 2 mM, 0 or 6 min preincubation. The method, then: The residual AOX1 enzyme activity was determined by the carbazeran 4-oxidation assay.
A test chemical at a concentration described above was incubated with human liver cytosol (100 μg protein) at 37 °C for 0 or 6 minutes. […] After 10-minute incubation, an aliquot (50 μL) of the […] (total volume of 200 μL) containing potassium phosphate buffer and carbazeran (15 μM), which yielded a 4-fold dilution of the secondary incubation mixture. The residual AOX1 enzyme activity was determined as described above.

Data set [5] has as its target T1, human liver cytosolic AOX1. Description: Effects of a competing AOX1 substrate and a competitive AOX1 inhibitor on AOX1 inactivation. The format is biochemical. More on the design: Enzymatic reaction was initiated by adding human liver cytosol (100 μg); tissue Corning, Inc. (Gentest brand) 452115; host or cells: human liver cytosol, pool of 150 donors. Particulars: 120 and 240 μM, human liver cytosol (data not shown). On the procedure:
The molar ratio of O^6-benzylguanine (120, 240, and 480 μM) to 3-vinylerlotinib (10 μM) was 12, 24, and 48, O^6-benzylguanine to 4′-methylerlotinib (3 μM) was 40, 80, and 160, and O^6-benzylguanine to 2-methylerlotinib (1 μM) was 120, 240, and 480, respectively. […] Each standard incubation mixture was subjected to the same procedures as described in Enzyme Inactivation Experiments. The residual AOX1 enzyme activity was determined by the carbazeran 4-oxidation or O^6-benzylguanine 8-oxidation assay.

Where [6] appears, read: erlotinib 100 mg/kg p.o. 2 h before.
The mark [7] stands for this setting: human liver cytosol, carbazeran 4-oxidation.
Setting [8] is: male, BALB/c, mouse, whole blood, po, 10 mg/kg, Control (vehicle pretreatment).
Where [9] appears, read: male, BALB/c, mouse, whole blood, po, 10 mg/kg, erlotinib 100 mg/kg p.o. 2 h before.

The structures appear in SMILES notation. Read-outs that look alike come from different tables or passages of the source.

With `CCNC(=O)OC1CCN(c2n[nH]c(=O)c3cc(OC)c(OC)cc23)CC1` [4-Oxo-Carbazeran, 4-oxo-carbazeran], in data set [1] (Control (vehicle pretreatment)), the “Ratio of AUC0-∞ (metabolite) to AUC0-∞ (parent)” value (“Ratio of AUC0-∞ (metabolite)” below) is 0.31 ± 0.06; the “AUC0-∞” value amounted to 0.78 ± 0.23 µM·h; the Cmax – broadly, the highest concentration seen after dosing – came out at 920 ± 390 nM; the Tmax (in general, the time from dosing to the highest level) stood at 19.2 ± 7.2 min. For the same compound, the “MRT0-∞” value in data set [1] (Control (vehicle pretreatment)) came out at 0.98 ± 0.19 h. Moreover, in data set [1] (Control (vehicle pretreatment), listed as 4-oxo-carbazeran), the “Ratio of AUC0-∞ (metabolite)” value was found to be 0.31. Also, in data set [1] (setting [6]), the “AUC0-∞” value was 0.027 ± 0.009∗∗∗∗ μM.h, the Cmax was determined as 8 ± 3 nM, the Tmax was determined as 27.6 ± 16.2 min and the “MRT0-∞” value was 8.98 ± 8.73∗ h. In data set [1] (erlotinib 100 mg/kg p.o. 2 h before carbazeran), the “Ratio of AUC0-∞ (metabolite)” value is listed as 0.007 ± 0.003∗∗∗∗.
With `CCc1cccc(Nc2ncnc3cc(OCCOC)c(OCCOC)cc23)c1` [Tetrahydroerlotinib, tetrahydroerlotinib], in data set [2] (half-maximal inactivation concentration, human liver cytosol, carbazeran 4-oxidation), the KI entry is “No inactivation”. For the same compound, the kinact result in data set [2] (human liver cytosol 100 μg, carbazeran 15 μM, 37 °C) is given as “No inactivation”. Further, the “decrease in carbazeran 4-oxidation” value is “did not decrease” in data set [2] (human liver cytosol, 10 μM (raloxifene 0.02 μM), 30-minute preincubation) and “did not decrease” in data set [2] (human liver cytosol, 50 μM, 120 minutes preincubation). Also, the “Inactivation t1/2” value in data set [2] (setting [7]) is recorded as “No inactivation”. For the same compound, the kinact/KI result in data set [2] (setting [7]) is reported as “No inactivation”. Besides, the “KI,u” value in data set [2] (unbound, KI,u = fu × KI, fu at 10 μM in human liver cytosol) is “No inactivation”. Also, in data set [3] (human liver cytosol), the “Turnover Number” value was “No inactivation”. Besides, the “Partition Ratio” value in data set [3] (turnover number minus 1) is reported as “No inactivation”. Besides, the “effect of coincubation or postincubation with potassium ferricyanide on AOX1 inactivation” value in data set [4] is on record as “not changed”.
In the case of `CCNC(=O)OC1CCN(c2nncc3cc(OC)c(OC)cc23)CC1` [Carbazeran, carbazeran], in data set [1] (setting [8]), the AUC(0-inf) (commonly total exposure, with the tail of the curve extrapolated) stood at 2.52 ± 0.46 µM·h; the Cmax was found to be 3470 ± 1390 nM; the CL/F is 188 mL/min/kg; the MRT inf was found to be 79.2 ± 26.4 min. In addition, in data set [1] (setting [9]), the area under the curve AUC(0-inf) worked out at 4.6 ± 2.02 µM·h, the Cmax was found to be 3530 ± 2180 nM, the CL/F is 114 mL/min/kg and the MRT inf was determined as 139 ± 45.6 min. The Tmax in data set [1] (male, BALB/c, mouse, whole blood, po, Control (vehicle pretreatment), read-out: Tmax) turned out to be 17.4 ± 5.4 min.
Consider `Nc1nc(OCc2ccccc2)c2nc[nH]c2n1` [O^6-benzylguanine], for which the “effect of O^6-benzylguanine alone on carbazeran 4-oxidation” value in data set [5] is listed as “did not affect the activity”.

Source of the values: publication PMC12881681 (Molecular Pharmacology, 2025).
